Laboratory results: PubChem BioAssay AID1355 (Sanford-Burnham Center for Chemical Genomics, 2008)
Active and inactive are the calls of the source.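 The calls were made as follows: active = survival at least 30 percentage points above the stressed untreated control at any dose of the stressor; inactive = the rest.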

Tested on: SW-1 melanoma, thapsigargin-induced death, ATPlite luminescence, 24 h
Assay: protection from thapsigargin-induced SW-1 death, SAR follow-up, cell-based, SW-1 melanoma, ATP content luminescence (AID 1355)
Conditions: at 25 µM, stronger effect = higher value
[1] = measured here: thapsigargin 7.5 uM
[2] = measured here: thapsigargin 15 uM

SMILES | survival | survival [1] | survival [2]
CC1(C)CC(=O)C2=C(C1)Nc1ccccc1NC2c1ccc(-c2ccccc2)cc1 (stereo not drawn) | 66% | 69% | 7%
CCCOc1ccc(C2Nc3ccccc3NC3=C2C(=O)CC(c2ccc(OC)c(OC)c2)C3)cc1 (stereo not drawn) | 83% | 71% | 3%
COc1ccc(C2CC(=O)C3=C(C2)Nc2ccccc2NC3c2ccccc2C(F)(F)F)cc1OC (stereo not drawn) | 98% | 89% | 7%
O=C1CC(c2ccccc2)CC2=C1C(c1c(F)cccc1Cl)Nc1ccccc1N2 (stereo not drawn) | 73% | 72% | 3%
COc1ccc(C2CC(=O)C3=C(C2)Nc2ccccc2NC3c2cc(C)ccc2C)cc1 (stereo not drawn) | 83% | 72% | 9%
COc1ccc(C2CC(=O)C3=C(C2)Nc2ccccc2NC3c2cccc(Oc3ccccc3)c2)cc1OC (stereo not drawn) | 84% | 77% | 18%
COc1ccc(C2CC(=O)C3=C(C2)Nc2ccccc2NC3c2cccc(Br)c2)cc1OC (stereo not drawn) | 67% | 72% | 7%
CSc1ccc(C2Nc3ccccc3NC3=C2C(=O)CC(c2ccccc2)C3)cc1 (stereo not drawn) | 74% | 72% | 23%
CCOc1cccc(C2Nc3ccccc3NC3=C2C(=O)CC(c2ccc(OC)cc2)C3)c1 (stereo not drawn) | 33% (inactive) | 75% | 3%
COc1ccc(C2CC(=O)C3=C(C2)Nc2ccccc2NC3c2cccc(C(F)(F)F)c2)cc1OC (stereo not drawn) | 86% | 75% | 8%
CCOc1cc(C2Nc3ccccc3NC3=C2C(=O)CC(c2ccc(OC)cc2)C3)cc(Cl)c1O (stereo not drawn) | 30% (inactive) | 71% | 2%
